Patent US20220056019A1, “FARNESOID X RECEPTOR AGONISTS AND USES THEREOF” (Metacrine, Inc., priority 2018, published 2022)

Molecular target: T1, hFXR (Homo sapiens, UniProt Q96RI1)
T1 construct: expressed in transfected cells; host or cells: CV-1 cells
T1 sequence (Q96RI1 1-486): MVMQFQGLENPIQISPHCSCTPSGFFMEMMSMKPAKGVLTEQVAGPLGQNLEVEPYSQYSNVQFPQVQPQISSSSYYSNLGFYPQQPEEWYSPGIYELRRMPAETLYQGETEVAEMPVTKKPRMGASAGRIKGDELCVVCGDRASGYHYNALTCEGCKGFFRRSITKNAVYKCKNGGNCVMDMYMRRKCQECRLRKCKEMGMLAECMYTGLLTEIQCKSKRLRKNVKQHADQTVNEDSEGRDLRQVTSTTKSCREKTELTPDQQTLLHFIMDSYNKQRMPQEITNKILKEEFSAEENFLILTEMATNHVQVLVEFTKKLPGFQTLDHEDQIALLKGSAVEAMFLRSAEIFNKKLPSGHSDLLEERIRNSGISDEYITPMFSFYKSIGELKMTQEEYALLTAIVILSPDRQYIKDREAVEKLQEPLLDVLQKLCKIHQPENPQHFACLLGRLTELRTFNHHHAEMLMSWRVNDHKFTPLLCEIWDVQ
T1 sequence (P19793 1-462 partner): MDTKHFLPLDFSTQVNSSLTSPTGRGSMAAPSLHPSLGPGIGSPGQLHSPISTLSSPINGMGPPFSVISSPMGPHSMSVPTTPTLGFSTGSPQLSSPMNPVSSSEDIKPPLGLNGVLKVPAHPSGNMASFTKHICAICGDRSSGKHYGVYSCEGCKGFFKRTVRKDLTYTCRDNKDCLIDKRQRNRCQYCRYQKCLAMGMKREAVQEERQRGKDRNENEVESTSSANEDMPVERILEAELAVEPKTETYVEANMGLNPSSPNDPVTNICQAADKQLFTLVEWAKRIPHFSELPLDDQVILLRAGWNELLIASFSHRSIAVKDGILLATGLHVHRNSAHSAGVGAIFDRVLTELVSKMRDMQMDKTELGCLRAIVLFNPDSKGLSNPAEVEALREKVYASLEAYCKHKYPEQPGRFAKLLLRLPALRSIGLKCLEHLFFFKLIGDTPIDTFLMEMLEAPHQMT
Experiment: In Vitro FXR Assay (TK): TK-ECRE-luc reporter in transfected CV-1 cells
Assay type: cell-based
Conditions: 18 hrs incubation, luminescence
Method in brief: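 Transactivation is scored as luminescence in CV-1 cell lysates. The cells, co-transfected with hFXR/hRXR and a TK-ECRE-luc reporter, are exposed to DMSO-diluted compounds for 18 h.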

SMILES	EC50 [µM]
COc1ccc([C@H]2CC[C@H](CN(c3cccc(-c4cnn(C(C)C)c4)c3)C(=O)[C@H]3CC[C@H](NC(=O)C(C)C)CC3)CC2)cc1C [Compound 10.06, trans-4-Isobutyramido-N-(3-(1-isopropyl-1H-pyrazol-4-yl)phenyl)-N-((trans-4-(4-methoxy-3-methylphenyl)cyclohexyl)methyl) cyclohexanecarboxamide]	≤ 0.05
COc1ccc(C23CCC(CN(c4cc(-c5cnn(C(C)C)c5)ccn4)C(=O)[C@H]4CC[C@H](NC(=O)CO)CC4)(CC2)CC3)cc1C [Compound 9.02, trans-4-(2-Hydroxyacetamido)-N-(4-(1-isopropyl-1H-pyrazol-4-yl)pyridin-2-yl)-N-((4-(4-methoxy-3-methylphenyl)bicyclo[2.2.2]octan-1-yl)methyl)cyclohexanecarboxamide]	≤ 0.05
COc1ccc(C23CCC(CN(c4cc(-c5coc(C6CC6)n5)ccn4)C(=O)[C@H]4CC[C@H](OC(=O)N5CC(O)C5)CC4)(CC2)CC3)cc1C [Compound 4.02, 4-((4-(2-Cyclopropyloxazol-4-yl)pyridin-2-yl)((4-(4-methoxy-3-methylphenyl)bicyclo[2.2.2]octan-1-yl)methyl)carbamoyl) cyclohexyl 3-hydroxyazetidine-trans-1-carboxylate]	≤ 0.05
COc1ccc(C23CCC(CN(c4cc(-c5cnn(C(C)C)c5)ccn4)C(=O)[C@H]4CC[C@H](OC(=O)NCCO)CC4)(CC2)CC3)cc1C [Compound 4.05, 4-((4-(1-Isopropyl-1H-pyrazol-4-yl)pyridin-2-yl)((4-(4-methoxy-3-methylphenyl)bicyclo [2.2.2]octan-1-yl)methyl)carbamoyl)cyclohexyl (2-hydroxyethyl)trans-carbamate]	≤ 0.05
COc1ccc(C23CCC(CN(c4cc(-c5coc(C6CC6)n5)ccn4)C(=O)[C@H]4CC[C@H](NC(C)=O)CC4)(CC2)CC3)cc1C [Compound 9.09, (trans)-4-Acetamido-N-(4-(2-cyclopropyloxazol-4-yl)pyridin-2-yl)-N-((4-(4-methoxy-3-methylphenyl)bicyclo[2.2.2]octan-1-yl)methyl)cyclohexanecarboxamide]	≤ 0.05
CC(C)n1cc(-c2ccnc(N(CC34CCC(c5ccc(N(C)C)nc5)(CC3)CC4)C(=O)[C@H]3CC[C@H](OC(=O)N4CC(O)C4)CC3)c2)cn1 [Compound 4.57, 4-(((4-(6-(Dimethylamino)pyridin-3-yl)bicyclo[2.2.2]octan-1-yl)methyl)(4-(1-isopropyl-1H-pyrazol-4-yl)pyridin-2-yl)carbamoyl) (trans-cyclohexyl) 3-hydroxyazetidine-1-carboxylate]	≤ 0.05
COc1ccc(C23CCC(CN(c4cc(-c5cnn(C6CCC6)c5)ncn4)C(=O)[C@H]4CC[C@H](OC(=O)N5CC(CO)C5)CC4)(CC2)CC3)cc1C [Compound 23.24]	≤ 0.05
COc1ccc(C23CCC(CN(c4cc(-c5cnn(C6(C)CCC6)c5)ccn4)C(=O)[C@H]4CC[C@H](OC(=O)N5CC(O)C5)CC4)(CC2)CC3)cc1C [Compound 24, 4-(((4-(4-Methoxy-3-methylphenyl)bicyclo[2.2.2]octan-1-yl)methyl)(4-(1-(1-methylcyclobutyl)-1H-pyrazol-4-yl)pyridin-2-yl)carbamoyl)cyclohexyl trans-3-hydroxyazetidine-1-carboxylate]	≤ 0.05
COc1ccc(C23CCC(CN(c4cc(-c5cnn(C(C)C)c5)ccn4)C(=O)[C@H]4CC[C@H](OC(=O)NC5COC5)CC4)(CC2)CC3)cc1C [Compound 4.13, 4-((4-(1-Isopropyl-1H-pyrazol-4-yl)pyridin-2-yl)((4-(4-methoxy-3-methylphenyl)bicyclo [2.2.2]octan-1-yl)methyl)carbamoyl)cyclohexyl trans-oxetan-3-ylcarbamate]	≤ 0.05
